# Source: ChEMBL document CHEMBL6078615, “Sesquilignans: Current research and potential prospective” (Eur J Med Chem, 2024)
# pEC50, pIC50: −log10 of the molar value.
# Legend:
# SH-SY5Y [1] = assay: Inhibition of H2O2-induced oxidative stress in human SH-SY5Y cells assessed as residual ROS level at 25 uM incubated for 3 hrs relative to control; assay type: functional
# [2] = Inhibition of alpha-glucosidase (unknown origin); set-up: species or system Homo sapiens
# RAW264.7 = assay: Anti-inflammatory activity in mouse RAW264.7 cells assessed as inhibition of LPS-induced NO production pre-incubated for 2 hrs followed by LPS-stimulation for 22 hrs by Griess reaction assay; assay type: functional; set-up: concentration or dose not given beside the values; settings: time 24 hrs
# SH-SY5Y [3] = assay: Induction of apoptosis in human SH-SY5Y cells assessed as increase in caspase-3 activity at 25 uM incubated for 72 hrs by colorimetric assay relative to control; assay type: functional
# BV-2 [4] = assay: Anti-inflammatory activity against mouse BV-2 cells assessed as inhibition of LPS-induced NO production pretreated for 2 hrs followed stimulated with LPS for 22 hrs by Griess reaction assay; assay type: functional, cell-based
# K562 = assay: Antiproliferative activity against human K562 cells assessed as reduction in cell viability incubated for 72 hrs by CCK-8 assay; assay type: functional, cell-based; settings: K562, 72 h
# Ebolavirus = assay: Antiviral activity against Ebola virus; assay type: functional, organism-based; settings: Orthoebolavirus
# Acetylcholinesterase = Acetylcholinesterase (Homo sapiens, UniProt P22303); assay: Inhibition of AChE (unknown origin)
# Sequence of Acetylcholinesterase (P22303 whole entry): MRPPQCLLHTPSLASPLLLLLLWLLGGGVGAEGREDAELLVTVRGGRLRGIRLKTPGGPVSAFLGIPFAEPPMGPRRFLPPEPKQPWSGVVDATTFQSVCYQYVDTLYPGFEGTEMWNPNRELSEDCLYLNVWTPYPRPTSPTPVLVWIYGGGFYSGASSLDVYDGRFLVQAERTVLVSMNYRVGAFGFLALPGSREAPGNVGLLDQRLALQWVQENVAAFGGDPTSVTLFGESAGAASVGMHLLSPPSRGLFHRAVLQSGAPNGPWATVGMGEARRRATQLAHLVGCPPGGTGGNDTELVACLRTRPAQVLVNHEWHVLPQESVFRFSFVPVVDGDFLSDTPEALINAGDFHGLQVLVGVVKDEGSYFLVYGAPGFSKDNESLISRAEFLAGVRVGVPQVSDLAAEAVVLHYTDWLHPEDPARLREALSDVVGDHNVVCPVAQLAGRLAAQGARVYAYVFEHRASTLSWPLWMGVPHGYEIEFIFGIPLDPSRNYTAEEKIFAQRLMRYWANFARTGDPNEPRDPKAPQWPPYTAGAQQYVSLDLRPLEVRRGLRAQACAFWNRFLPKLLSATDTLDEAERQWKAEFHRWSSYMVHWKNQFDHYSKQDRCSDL
# [5] = Antioxidant activity assessed as DPPH radical scavenging activity incubated for 30 mins by spectrophotometric analysis; assay type: functional
# CNE-2 = assay: Anticancer activity against human CNE-2 cells assessed as reduction in cell growth; assay type: functional, cell-based
# HeLa = assay: Cytotoxicity against human HeLa cells assessed as reduction in cell viability incubated for 48 hrs by MTT assay; assay type: functional, cell-based
# MCF7 = assay: Cytotoxicity against human MCF7 cells assessed as reduction in cell viability incubated for 72 hrs by MTT assay; assay type: functional, cell-based; settings: MCF7, 72 h
# HL-60 = assay: Antiproliferative activity against human HL-60 cells assessed as reduction in cell viability incubated for 72 hrs by MTT assay; assay type: functional, cell-based; settings: HL-60, 72 h
# HepG2 = assay: Cytotoxicity against human HepG2 cells assessed as reduction in cell viability by MTT assay; assay type: functional, cell-based
# BV-2 [6] = assay: Anti-inflammatory activity against mouse BV-2 cells assessed as inhibition of LPS-induced NO production at 10 uM pretreated for 2 hrs followed stimulated with LPS for 22 hrs by Griess reaction assay relative to control; assay type: functional; settings: time 24 hrs
# HT-29 = assay: Antiproliferative activity against human HT-29 cells assessed as reduction in cell viability after 72 hrs by MTS assay; assay type: functional, cell-based; settings: HT-29, 72 h
# [7] = Cytotoxicity against human HUVEC cells assessed as reduction in cell growth incubated for 48 hrs by CCK-8 method; assay type: toxicity, cell-based
smiles,measurement,setting,value
COc1cc([C@@H](O)[C@@H](CO)Oc2c(OC)cc([C@@H]3Oc4c(OC)cc([C@H](O)[C@@H](O)CO)cc4[C@H]3CO)cc2OC)ccc1O,Activity,SH-SY5Y [1],63.72%
COc1cc(O)cc([C@@H]2c3c(cc(OC)c4c3[C@H](CO)[C@H](c3ccc(O)c(OC)c3)O4)C[C@H](CO)[C@H]2CO)c1,pIC50,[2],5.29
COc1ccc([C@@H](O)[C@@H](C)Oc2ccc([C@H]3O[C@H](c4ccc5c(c4)OCO5)[C@H](C)[C@H]3C)cc2OC)cc1OC,Activity,RAW264.7,2.62%
COc1cc([C@@H](O)[C@@H](CO)Oc2ccc([C@@H](O)[C@H](CO)Oc3c(OC)cc(CCCO)cc3OC)cc2OC)ccc1O,Activity,SH-SY5Y [3],77.58%
COc1cc([C@H]2OC[C@H]3[C@@H]2CO[C@@H]3c2cc(OC)c(OC)c(OC)c2)ccc1O[C@@H](CO)[C@H](O)c1cc(OC)c(OC)c(OC)c1,pIC50,BV-2 [4],4.96
COc1cc(C[C@H]2COC(=O)[C@@H]2Cc2cc(OC)c3c(c2)[C@H](CO)[C@@H](c2ccc(O)c(OC)c2)O3)ccc1O,IC50,K562,53.5 µg/mL
COc1cc([C@@H](O)[C@@H](C)Oc2ccc([C@@H]3O[C@H](c4ccc(O)c(OC)c4)[C@H](C)[C@H]3C)cc2OC)ccc1O,pEC50,Ebolavirus,5.16
C=CCc1ccc(O)c(-c2cc(CC=C)cc(-c3cc(CC=C)ccc3O)c2O[C@@H]2C[C@@H](C(C)C)C=C[C@]2(C)O)c1,pIC50,Acetylcholinesterase,5.18
COc1cc([C@H](OC)[C@@H](CO)Oc2c(OC)cc([C@@H]3Oc4c(OC)cc([C@H](O)[C@@H](O)CO)cc4[C@H]3CO)cc2OC)ccc1O,Activity,SH-SY5Y [1],76.21%
COc1cc([C@H]2OC[C@H]3[C@@H]2CO[C@@H]3c2cc(OC)c(O[C@@H](CO)[C@@H](OC)c3ccc(O)c(OC)c3)c(OC)c2)ccc1O,pIC50,[5],4.25
COc1cc([C@H]2Oc3c(OC)cc(C[C@H]4C(=O)OC[C@@H]4Cc4ccc(OC)c(OC)c4)cc3[C@@H]2CO)ccc1O,IC50,K562,38.5 µg/mL
C=CCc1ccc2c(c1)O[C@@H](c1ccc(O)c(O)c1)[C@H](Cc1cc(O)c(O)cc1CC=C)O2,Activity,RAW264.7,9.87%
COc1ccc([C@@H](O)[C@@H](C)Oc2ccc([C@H]3O[C@H](c4ccc(OC)c(OC)c4)[C@H](C)[C@H]3C)cc2OC)cc1OC,pEC50,Ebolavirus,5.77
COC[C@H]1c2cc(C[C@@H]3C(=O)OC[C@H]3Cc3ccc(O)c(OC)c3)ccc2O[C@@H]1c1ccc(O)c(OC)c1,Activity,RAW264.7,8.59%
CC(Cc1ccc(O)cc1)c1cc([C@H]2O[C@@H](c3ccc(O)c(O)c3)[C@H](C)[C@H]2C)ccc1O (some centres undefined),pIC50,[5],5.95
COc1cc(CC(CO)C(CO)Cc2ccc(OC(CO)C(O)c3ccc(O)c(OC)c3)c(OC)c2)ccc1O (centres undefined),EC50,CNE-2,2.4 µg/mL
same,IC50,HeLa,195 µg/mL
Oc1ccc(/C=C/C[C@@H]2CC(C(O)c3ccc(O)cc3)CO[C@H]2c2ccc(O)cc2)cc1 (some centres undefined),Activity,RAW264.7,33%
COc1cc([C@@H]2c3c(cc(OC)c4c3[C@H](CO)[C@H](c3ccc(O)c(OC)c3)O4)C[C@H](CO)[C@H]2CO)ccc1O,Activity,RAW264.7,19.46%
COc1cc([C@@H]2c3cc(O[C@H](CO)[C@@H](O)c4ccc(O)c(OC)c4)c(OC)cc3C[C@H](CO)[C@@H]2CO)ccc1O,Activity,SH-SY5Y [3],79.36%
C=CCc1ccc(Oc2cc(CC=C)cc(-c3cc(CC=C)ccc3O)c2O)cc1,pIC50,Acetylcholinesterase,5.00
COc1cc([C@H]2OC[C@H]3[C@@H]2CO[C@@H]3c2ccc(O[C@H](CO)[C@@H](O)c3ccc(O)c(OC)c3)c(OC)c2)ccc1O,pIC50,[2],5.17
COc1cc([C@@H](O)[C@@H](CO)Oc2ccc([C@H](O)[C@H](CO)Oc3c(OC)cc([C@H](O)[C@H](O)CO)cc3OC)cc2OC)ccc1O,Activity,SH-SY5Y [1],74.78%
COc1ccc([C@@H]2O[C@H](c3ccc(OC)c(O[C@@H](C)[C@@H](OC)c4ccc(OC)c(O)c4)c3)[C@@H](C)[C@@H]2C)cc1O,pIC50,MCF7,5.08
same,Activity,RAW264.7,18.1%
COc1cc([C@H](O)[C@@H](CO)Oc2ccc([C@@H](O)[C@@H](CO)Oc3c(OC)cc(CCCO)cc3OC)cc2OC)ccc1O,Activity,SH-SY5Y [1],77.58%
COc1cc([C@@H](O)[C@@H](C)Oc2ccc([C@H]3O[C@@H](c4ccc(O)c(OC)c4)[C@H](C)[C@H]3C)cc2OC)ccc1O,pIC50,HL-60,4.96
same,pIC50,HepG2,4.96
same,pIC50,MCF7,5.01
same,Activity,RAW264.7,18.1%
CCO[C@@H](c1ccc(O)c(OC)c1)[C@H](CO)Oc1ccc([C@H](O)[C@@H](CO)Oc2ccc(CCCO)cc2OC)cc1OC,Activity,SH-SY5Y [1],71.1%
COc1cc([C@@H](O)[C@@H](CO)Oc2c(OC)cc([C@@H]3Oc4c(OC)cc([C@H](O)[C@H](O)CO)cc4[C@H]3CO)cc2OC)ccc1O,Activity,SH-SY5Y [1],75.63%
COc1cc([C@H]2OC[C@H]3[C@@H]2CO[C@@H]3c2cc(OC)c3c(c2)[C@H](CO)[C@@H](c2ccc(O)c(OC)c2)O3)ccc1O,inhibition at 10 µM,BV-2 [6],50.7%
OC[C@@H]1Oc2ccc([C@H]3OC[C@H]4[C@@H]3CO[C@@H]4c3ccc(O)c(O)c3)cc2O[C@H]1c1ccc(O)c(O)c1 [PRINCEPIN],pIC50,BV-2 [4],5.89
COc1cc([C@H](O)[C@@H](CO)Oc2ccc([C@@H](O)[C@H](CO)Oc3c(OC)cc([C@H](O)[C@@H](O)CO)cc3OC)cc2OC)ccc1O,Activity,SH-SY5Y [1],75.9%
COc1cc([C@@H](O)[C@@H](CO)Oc2ccc([C@H](O)[C@H](CO)Oc3c(OC)cc([C@H](O)[C@@H](O)CO)cc3OC)cc2OC)ccc1O,Activity,SH-SY5Y [1],75.8%
COc1cc([C@@H](O)[C@@H](CO)Oc2c(OC)cc([C@@H]3OC[C@@H]4[C@H]3CO[C@H]4c3cc(OC)c(O)c(OC)c3)cc2OC)ccc1O,pIC50,[2],4.81
COc1cc([C@@H]2c3c(cc(OC)c4c3[C@H](CO)[C@H](c3ccc(O[C@@H]5O[C@H](CO)[C@@H](O)[C@H](O)[C@H]5O)c(OC)c3)O4)C[C@H](CO)[C@H]2CO)ccc1O,Activity,RAW264.7,64.82%
COc1cc([C@@H](O)[C@H](CO)Oc2ccc([C@H]3OC[C@H]4[C@@H]3CO[C@@H]4c3ccc(O)c(OC)c3)cc2OC)ccc1O,pIC50,[2],5.29
COc1cc([C@H]2O[C@H](c3ccc4c(c3)OCO4)[C@H](C)[C@H]2C)ccc1O[C@H](C)[C@H](O)c1ccc2c(c1)OCO2,pIC50,HT-29,5.00
OC/C=C/c1ccc2c(c1)O[C@H](c1ccc3c(c1)O[C@@H](c1ccc(O)c(O)c1)[C@H](CO)O3)[C@@H](CO)O2,pIC50,[2],6.21
COc1cc([C@@H](OC)[C@@H](CO)Oc2c(OC)cc([C@@H]3Oc4c(OC)cc([C@H](O)[C@@H](O)CO)cc4[C@H]3CO)cc2OC)ccc1O,Activity,SH-SY5Y [3],90.74%
same,Activity,SH-SY5Y [1],90.74%
COc1cc(C[C@@H](CO)[C@H](CO)Cc2cc(OC)c3c(c2)[C@H](CO)[C@@H](c2ccc(O)c(OC)c2)O3)ccc1O,EC50,CNE-2,2 µg/mL
same,IC50,HeLa,114 µg/mL
COc1cc(C[C@H]2C(=O)OC[C@@H]2Cc2cc(OC)c3c(c2)[C@H](CO)[C@@H](c2ccc(O)c(OC)c2)O3)ccc1O,IC50,K562,51.1 µg/mL
COc1cc(/C=C/C=O)cc2c1O[C@H](c1ccc3c(c1)[C@H](CO)[C@@H](c1ccc(O)cc1)O3)[C@H]2CO,pIC50,BV-2 [4],4.41
COc1ccc([C@@H]2O[C@H](c3ccc(OC)c(O[C@H](C)[C@@H](O)c4ccc(O)c(OC)c4)c3)[C@H](C)[C@H]2C)cc1O,pIC50,MCF7,5.06
same,Activity,RAW264.7,18.1%
COc1cc([C@@H](O)[C@@H](CO)Oc2ccc([C@@H]3OC[C@@H]4[C@H]3CO[C@H]4c3ccc(O)c(OC)c3)cc2OC)ccc1O,pIC50,[2],5.52
COc1cc([C@@H]2c3cc(O[C@H](CO)[C@H](O)c4ccc(O)c(OC)c4)c(OC)cc3C[C@H](CO)[C@H]2CO)ccc1O,Activity,SH-SY5Y [3],80.72%
COc1cc([C@H](OC)[C@@H](CO)Oc2ccc([C@@H](O)[C@H](CO)Oc3ccc(CCCO)cc3OC)cc2OC)ccc1O,Activity,SH-SY5Y [1],74.22%
COCc1c(-c2ccc(O)c(OC)c2)oc2c(OC)cc([C@H]3OC[C@@H]4[C@H]3CO[C@@H]4c3ccc(O)c(OC)c3)cc12,IC50 at 48 h,[7],32.8 µM
C=CCc1ccc(O)c(-c2cc(CC=C)cc(-c3cc(CC=C)ccc3O)c2O[C@H]2CC(C)(C)[C@@H]3CC[C@]4(C)C[C@]23CC[C@H]4O)c1,pIC50,Acetylcholinesterase,5.34
